# Experimental data from US11827866B2 (priority 2007, dated 2023).
# Experiments:
# subtilisin = subtilisin (Bacillus licheniformis, UniProt P00780); settings: literature statement, Biochem. Biophys. Res. Com. 176, 1991; cited from earlier work
# protease = format: biochemical; settings: pH 9
# Chain of subtilisin (P00780 106-379): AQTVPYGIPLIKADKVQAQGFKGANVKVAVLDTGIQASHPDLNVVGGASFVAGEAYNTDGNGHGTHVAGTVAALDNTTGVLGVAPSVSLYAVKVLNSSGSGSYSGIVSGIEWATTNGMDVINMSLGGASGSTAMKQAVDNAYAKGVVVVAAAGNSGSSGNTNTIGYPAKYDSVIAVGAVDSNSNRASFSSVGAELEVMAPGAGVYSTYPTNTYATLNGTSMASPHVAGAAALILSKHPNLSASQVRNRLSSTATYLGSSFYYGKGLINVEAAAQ
Compound,Residual activity (4 weeks at 40° C.) (protease),also measured
"OB(O)c1cc(Cl)cc(Cl)c1 [3,5-dichlorophenylboronic acid]",–,capacity as subtilisin inhibitor (subtilisin): particularly effective
[Cl][Al]([Cl])[Cl] [Aluminium Chloride],16%,–
Cl.N [Armonium Chloride],49%,–
N.O=[N+]([O-])O [Armonium Nitrate],41%,–
N.N.O=S(=O)(O)O [Armonium Sulfate],43%,–
[Ca+2].[Cl-].[Cl-] [Calcium Chloride],22%,–
[Cl-].[Cl-].[Mg+2] [Magnesium Chloride],79%,–
O=[N+]([O-])[O-].O=[N+]([O-])[O-].[Mg+2] [Magnesium Nitrate],55%,–
O=S(=O)([O-])[O-].[Mg+2] [Magnesium Sulfate],37%,–
[Cl-].[K+] [Potassium Chloride],34%,–
CC(=O)[O-].[Na+] [Sodium Acetate],20%,–
O=C([O-])[O-].[Na+].[Na+] [Sodium Carbonate],15%,–
[Cl-].[Na+] [Sodium Chloride],32%,–
O=C([O-])CC(O)(CC(=O)[O-])C(=O)[O-].[Na+].[Na+].[Na+] [Sodium Citrate],1%,–
O=C[O-].[Na+] [Sodium Formiate],29%,–
O=[N+]([O-])[O-].[Na+] [Sodium Nitrate],20%,–
O=P(O)(O)O [Sodium Phosphate],13%,–
O=S(=O)([O-])[O-].[Na+].[Na+] [Sodium Sulfate],22%,–
[Cl-].[Cl-].[Zn+2] [Zink Chloride],–,Residual activity (2 weeks at 40° C.) (protease): 102%
O=S(=O)([O-])[O-].[Zn+2] [Zink Sulfate],–,Residual activity (2 weeks at 40° C.) (protease): 88%
CB(O)O [methylboronic acid],–,capacity as subtilisin inhibitor (subtilisin): poorest inhibitor
